Laboratory results as given in patent US8168680B2, “Cyclopentane heptan(ENE)OIC acid, 2-heteroarylalkenyl derivatives as therapeutic agents” (Allergan, Inc., priority 2004, dated 2012).

Key:
Assay type in all cases: cell-based
hFP = target: T1, hFP (Homo sapiens, UniProt P43088); assay: FLIPR calcium signal, HEK-293(EBNA) cells expressing hFP; details: recombinant human FP receptor, read-out: FUNCTIONAL DATA EC50 HFP
T1 construct: expressed in transfected cells; host or cells: HEK-293(EBNA)
Protocol: (§1) Methods for FLIPR™ Studies
(§2) HEK-293(EBNA) cells, stably expressing one type or subtype of recombinant human prostaglandin receptors (prostaglandin receptors expressed: hDP/Gqs5; hEP1; hEP2/Gqs5; hEP3A/Gqi5; hEP4/Gqs5; hFP; hIP; hTP), were cultured in 100 mm culture dishes in high-glucose DMEM medium containing 10% fetal bovine serum, 2 mM 1-glutamine, 250 μg/ml geneticin (G418) and 200 μg/ml hygromycin B as selection markers, and 100 units/ml penicillin G, 100 μg/ml streptomycin and 0.25 μg/ml amphotericin B.
(§3) (b) Calcium Signal Studies on the FLIPR™
(§4) Cells were seeded at a density of 5×10^4 cells per well in Biocoat® Poly-D-lysine-coated black-wall, clear-bottom 96-well plates (Becton-Dickinson) and allowed to attach overnight in an incubator at 37° C. Cells were then washed two times with HBSS-HEPES buffer (Hanks Balanced Salt Solution without bicarbonate and phenol red, 20 mM HEPES, pH 7.4) using a Denley Cellwash plate washer (Labsystems). After 45 minutes of dye-loading in the dark, using the calcium-sensitive dye Fluo-4 AM at a final concentration of 2 μM, plates were washed four times with HBSS-HEPES buffer to remove excess dye leaving 100 μl in each well. Plates were re-equilibrated to 37° C. for a few minutes.
(§5) Cells were excited with an Argon laser at 488 nm, and emission was measured through a 510-570 nm bandwidth emission filter (FLIPR™, Molecular Devices, Sunnyvale, Calif.). Drug solution was added in a 50 μl volume to each well to give the desired final concentration. The peak increase in fluorescence intensity was recorded for each well. On each plate, four wells each served as negative (HBSS-HEPES buffer) and positive controls (standard agonists: BW245C (hDP); PGE2 (hEP1; hEP2/Gqs5; hEP3A/Gqi5; hEP4/Gqs5); PGF2α (hFP); carbacyclin (hIP); U-46619 (hTP), depending on receptor). The peak fluorescence change in each drug-containing well was then expressed relative to the controls.
Compounds were tested in a high-throughput (HTS) or concentration-response (CoRe) format. In the HTS format, forty-four compounds per plate were examined in duplicates at a concentration of 10^−5 M. To generate concentration-response curves, four compounds per plate were tested in duplicates in a concentration range between 10^−5 and 10^−11 M. The duplicate values were averaged. In either, HTS or CoRe format each compound was tested on at least 3 separate plates using cells from different passages to give an n≧3.

hEP3A/Gqi5 = target: T2, hEP3A/Gqi5 (Homo sapiens, UniProt P43115); assay: FLIPR calcium signal, HEK-293(EBNA) cells expressing hEP3A/Gqi5; details: recombinant human EP3A/Gqi5, HEK-293(EBNA), read-out: FUNCTIONAL DATA EC50 HEP3A
T2 construct: expressed in transfected cells; host or cells: HEK-293(EBNA)
T2 sequence (P43115 1-390): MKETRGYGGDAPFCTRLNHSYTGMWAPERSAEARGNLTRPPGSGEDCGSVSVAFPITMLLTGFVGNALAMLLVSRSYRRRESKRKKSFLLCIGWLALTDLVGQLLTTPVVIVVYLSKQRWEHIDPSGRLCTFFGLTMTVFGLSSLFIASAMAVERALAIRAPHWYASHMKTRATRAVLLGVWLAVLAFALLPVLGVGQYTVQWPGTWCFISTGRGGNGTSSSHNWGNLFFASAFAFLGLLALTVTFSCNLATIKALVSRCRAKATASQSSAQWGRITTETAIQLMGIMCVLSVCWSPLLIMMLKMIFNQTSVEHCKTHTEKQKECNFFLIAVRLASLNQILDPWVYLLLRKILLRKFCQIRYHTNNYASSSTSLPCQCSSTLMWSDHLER
Protocol: as §1, §2, §3, §4, §5
(§6) Compounds were tested in a high-throughput (HTS) or concentration-response (CoRe) format. […]

hTP = target: T3, hTP (Homo sapiens, UniProt P21731); assay: FLIPR calcium signal, HEK-293(EBNA) cells expressing hTP; details: recombinant human TP receptor, read-out: FUNCTIONAL DATA EC50 HTP
T3 construct: expressed in transfected cells; host or cells: HEK-293(EBNA)
T3 sequence (P21731 1-343): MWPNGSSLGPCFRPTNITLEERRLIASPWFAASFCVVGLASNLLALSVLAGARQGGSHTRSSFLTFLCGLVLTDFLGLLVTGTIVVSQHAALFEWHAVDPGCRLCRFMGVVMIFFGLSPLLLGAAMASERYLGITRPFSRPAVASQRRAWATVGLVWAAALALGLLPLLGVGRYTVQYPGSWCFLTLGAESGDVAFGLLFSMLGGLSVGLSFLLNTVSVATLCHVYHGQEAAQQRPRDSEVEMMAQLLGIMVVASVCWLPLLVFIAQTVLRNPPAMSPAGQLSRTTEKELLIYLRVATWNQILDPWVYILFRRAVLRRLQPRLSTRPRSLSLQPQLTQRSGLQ
Protocol: as §1, §2, §3, §4, §5, §6

T1 sequence (P43088 whole entry): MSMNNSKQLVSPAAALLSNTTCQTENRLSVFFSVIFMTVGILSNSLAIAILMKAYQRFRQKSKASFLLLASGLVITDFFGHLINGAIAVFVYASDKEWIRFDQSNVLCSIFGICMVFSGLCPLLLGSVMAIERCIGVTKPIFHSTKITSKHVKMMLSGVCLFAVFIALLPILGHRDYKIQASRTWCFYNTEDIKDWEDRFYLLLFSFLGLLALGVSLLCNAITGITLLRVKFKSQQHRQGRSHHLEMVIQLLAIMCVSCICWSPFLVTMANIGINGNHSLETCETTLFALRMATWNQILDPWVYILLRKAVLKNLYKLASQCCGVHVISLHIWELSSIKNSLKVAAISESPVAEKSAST

| Structure (SMILES) | EC50 (hFP) [nM] | EC50 (hEP3A/Gqi5) [nM] | EC50 (hTP) [nM] |
| --- | --- | --- | --- |
| Cc1sc(CC[C@H](O)/C=C/[C@H]2[C@H](C)CC(O)[C@@H]2C/C=C\CCCC(=O)O)cc1Br (single isomer, unassigned) | 43 |  |  |
| C=C[C@@H]1CC(O)[C@H](C/C=C\CCCC(=O)O)[C@H]1/C=C/[C@@H](O)CCc1cc(Br)c(C)s1 (single isomer, unassigned) [drawing 47] | 61 | 304 | 243 |
| C=C[C@@H]1CC(O)[C@H](C/C=C\CCCC(=O)O)[C@H]1/C=C/[C@@H](O)CCc1cc(Br)c(C)s1 (single isomer, unassigned) [drawing 48] | 1530 | 554 |  |
| C=C[C@@H]1CC(O)[C@H](C/C=C\CCCC(=O)OC)[C@H]1/C=C/[C@@H](O)CCc1cc(Br)c(C)s1 (single isomer, unassigned) [drawing 49] | 742 | 6010 | 1810 |
| C=C[C@@H]1CC(O)[C@H](C/C=C\CCCC(=O)OC)[C@H]1/C=C/[C@@H](O)CCc1cc(Br)c(C)s1 (single isomer, unassigned) [drawing 51] | > 10000 |  | > 10000 |
